Laboratory results reported in ChEMBL document CHEMBL4177678, “Design, synthesis and in vitro anti-tuberculosis activity of benzo[6,7]cyclohepta[1,2-b]pyridine-1,2,3-triazole derivatives” (Bioorg Med Chem Lett, 2017).
In brackets after ≈: the same amount, converted by molar mass.

The molecules below were run on Mycobacterium tuberculosis (assay: Antitubercular activity against Mycobacterium tuberculosis H37Rv ATCC 27294 after 28 days by two-fold serial dilution method). Details: H37Rv ATCC 27294, 672 h.
Assay type: functional

Question: For Cc1cc2c(cc1C)-c1nc(C)c(Cn3cc(-c4cccnc4)nn3)cc1CCC2, which MIC is on record?
Answer: The MIC was 6.25 µg/mL (≈ 15.8 µM).

Question: How did the MIC turn out when Cc1nc2c(cc1Cn1cc(-c3ccccn3)nn1)CCCc1ccccc1-2 was run?
Answer: Its MIC is 12.5 µg/mL (≈ 34 µM).

Question: For Cc1cc2c(cc1C)-c1nc(C)c(Cn3cc(-c4ccccc4)nn3)cc1CCC2, which MIC is on record?
Answer: Its MIC is 25 µg/mL (≈ 63.4 µM).

Question: With Cc1cc2c(cc1C)-c1nc(C)c(Cn3cc(-c4ccccn4)nn3)cc1CCC2 as the molecule, how does the MIC read?
Answer: Its MIC is 25 µg/mL (≈ 63.2 µM).

Question: How did the MIC turn out when CCCCCc1ccc(-c2cn(Cc3cc4c(nc3C)-c3cc(C)c(C)cc3CCC4)nn2)cc1 was run?
Answer: The MIC was greater than 25 µg/mL.

Question: Which MIC does the source give for CCCCCCc1cn(Cc2cc3c(nc2C)-c2cc(C)c(C)cc2CCC3)nn1 here?
Answer: Its MIC is 12.5 µg/mL (≈ 31 µM).

Question: Cc1nc2c(cc1Cn1cc(-c3ccccc3)nn1)CCCc1ccccc1-2 was tested. Which MIC did it give?
Answer: The MIC was 25 µg/mL (≈ 68.2 µM).

Question: COc1ccc2cc(-c3cn(Cc4cc5c(nc4C)-c4cc(C)c(C)cc4CCC5)nn3)ccc2c1 was tested. Which MIC did it give?
Answer: The MIC was 25 µg/mL (≈ 52.7 µM).

Question: COc1ccc2cc(-c3cn(Cc4cc5c(nc4C)-c4ccccc4CCC5)nn3)ccc2c1 was tested. Which MIC did it give?
Answer: Its MIC is 25 µg/mL (≈ 56 µM).

Question: For Cc1cc2c(cc1C)-c1nc(C)c(Cn3cc(-c4ccsc4)nn3)cc1CCC2, which MIC is on record?
Answer: Its MIC is 12.5 µg/mL (≈ 31.2 µM).

Question: With COc1cccc(-c2cn(Cc3cc4c(nc3C)-c3cc(C)c(C)cc3CCC4)nn2)c1 as the molecule, how does the MIC read?
Answer: Its MIC is 25 µg/mL (≈ 58.9 µM).

Question: How did the MIC turn out when Cc1ccc(-c2cn(Cc3cc4c(nc3C)-c3ccccc3CCC4)nn2)cc1 was run?
Answer: Its MIC is 12.5 µg/mL (≈ 32.9 µM).

Question: Which MIC does the source give for CCCCCCc1cn(Cc2cc3c(nc2C)-c2ccccc2CCC3)nn1 here?
Answer: The MIC was 1.56 µg/mL (≈ 4.17 µM).

Question: Which MIC does the source give for Cc1cc2c(cc1C)-c1nc(C)c(Cn3cc(-c4cc5ccccc5c5ccccc45)nn3)cc1CCC2 here?
Answer: The MIC was 1.56 µg/mL (≈ 3.15 µM).

Question: How did the MIC turn out when Cc1nc2c(cc1Cn1cc(-c3cccnc3)nn1)CCCc1ccccc1-2 was run?
Answer: Its MIC is 6.25 µg/mL (≈ 17 µM).

Question: Which MIC does the source give for Cc1nc2c(cc1Cn1cc(-c3cc4ccccc4c4ccccc34)nn1)CCCc1ccccc1-2 here?
Answer: Its MIC is greater than 25 µg/mL.

Question: How did the MIC turn out when COc1cccc(-c2cn(Cc3cc4c(nc3C)-c3ccccc3CCC4)nn2)c1 was run?
Answer: The MIC was greater than 25 µg/mL.

Question: For Cc1nc2c(cc1Cn1cc(-c3ccsc3)nn1)CCCc1ccccc1-2, which MIC is on record?
Answer: The MIC was 12.5 µg/mL (≈ 33.6 µM).

Question: Which MIC does the source give for CCCCCc1ccc(-c2cn(Cc3cc4c(nc3C)-c3ccccc3CCC4)nn2)cc1 here?
Answer: Its MIC is 12.5 µg/mL (≈ 28.6 µM).

Question: Cc1ccc(-c2cn(Cc3cc4c(nc3C)-c3cc(C)c(C)cc3CCC4)nn2)cc1 was tested. Which MIC did it give?
Answer: The MIC was 12.5 µg/mL (≈ 30.6 µM).

Question: Which MIC does the source give for CC[C@@H](CO)NCCN[C@@H](CC)CO [ETHAMBUTOL] here?
Answer: Its MIC is 3.13 µg/mL (≈ 15.3 µM).

Question: With NNC(=O)c1ccncc1 [ISONIAZID] as the molecule, how does the MIC read?
Answer: Its MIC is 0.1 µg/mL (≈ 0.729 µM).

Question: With CO[C@H]1/C=C/O[C@@]2(C)Oc3c(C)c(O)c4c(O)c(c(/C=N/N5CCN(C)CC5)c(O)c4c3C2=O)NC(=O)/C(C)=C\C=C\[C@H](C)[C@H](O)[C@@H](C)[C@@H](O)[C@@H](C)[C@H](OC(C)=O)[C@@H]1C [RIFAMPIN] as the molecule, how does the MIC read?
Answer: The MIC was 0.2 µg/mL (≈ 0.243 µM).

Each molecule was assayed on HEK-293T (assay: Cytotoxicity against human HEK293T cells assessed as reduction in cell viability at 50 ug/ml after 24 hrs by MTT assay). Details: not given.
Assay type: cell-based

Question: How did the Activity turn out when CCCCCCc1cn(Cc2cc3c(nc2C)-c2ccccc2CCC3)nn1 was run?
Answer: The Activity was “Non-Toxic”.

Question: Cc1cc2c(cc1C)-c1nc(C)c(Cn3cc(-c4cc5ccccc5c5ccccc45)nn3)cc1CCC2 was tested. Which Activity did it give?
Answer: The Activity was “Non-Toxic”.
